Laboratory results from US11566039B2, “Lincosamide antibiotics and uses thereof” (President and Fellows of Harvard College, priority 2017, dated 2023).
Converted amounts (≈) assume the structure as drawn. Read-outs that look alike come from different tables or passages of the source.

Key:
Format in all cases: cell-based
S. pyogenes ATCC 19615 = assay: MIC against S. pyogenes ATCC 19615
H. influenzae ATCC 49247 = assay: MIC against H. influenzae ATCC 49247
S. aureus ATCC 29213 = assay: MIC against S. aureus ATCC 29213
[1] = test system: S. aureus MP-549 msr(a) USA 300; assay: MIC against S. aureus MP-549 msr(a) USA 300
K. pneumoniae ATCC 10031 = assay: MIC against K. pneumoniae ATCC 10031
[2] = test system: E. coli MP-74 LptD mutant; assay: MIC against E. coli MP-74 LptD mutant
E. coli ATCC 25922 = assay: MIC against E. coli ATCC 25922
S. pneumoniae ATCC 49619 = assay: MIC against S. pneumoniae ATCC 49619
E. coli MP-9 ΔTolC = assay: MIC against E. coli MP-9 ΔTolC
E. faecalis ATCC 29212 = assay: MIC against E. faecalis ATCC 29212
S. aureus BAA 977 iErmA = assay: MIC against S. aureus BAA 977 iErmA; settings: Staphylococcus aureus, BAA977
[3] = Haemophilus influenzae, ATCC49247, H. influenzae ATCC 49247, read-out: MIC
[4] = S. aureus MP-549 msr(a) USA 300
[5] = Klebsiella pneumoniae, ATCC10031, read-out: MIC
[6] = Escherichia coli, ATCC25922, read-out: MIC
[7] = Enterococcus faecalis, ATCC29212, E. faecalis ATCC 29212, read-out: MIC
[8] = Streptococcus pyogenes, ATCC19615, S. pyogenes ATCC 19615, read-out: MIC
[9] = Staphylococcus aureus, ATCC29213, S. aureus ATCC 29213, read-out: MIC
[10] = Streptococcus pneumoniae, ATCC49619, S. pneumoniae ATCC 49619, read-out: MIC
[11] = Staphylococcus aureus, USA300, S. aureus MP-549 msr(a) USA 300

SMILES	MIC (H. influenzae ATCC 49247; [3]) [µg/mL]	MIC (K. pneumoniae ATCC 10031; [5]) [µg/mL]	MIC (E. coli ATCC 25922; [6]) [µg/mL]	MIC (E. coli MP-9 ΔTolC; Escherichia coli) [µg/mL]	MIC (E. faecalis ATCC 29212; [7]) [µg/mL]	MIC (S. pyogenes ATCC 19615; [8]) [µg/mL]	MIC (S. aureus ATCC 29213; [9]) [µg/mL]	MIC (S. pneumoniae ATCC 49619; [10]) [µg/mL]	also measured
CCC[C@@H]1C[C@@H](C(=O)N[C@@H]([C@H]2OC(SC)[C@H](O)C(O)C2O)C(C)(C)C(C)N=[N+]=[N-])N(C)C1 (single isomer, unassigned) [FSA-217021a]	> 64	> 64	> 64	> 64	> 64	–	–	–	MIC (S. pyogenes ATCC 19615; S. pyogenes ATCC 19615): 2 µg/mL (≈ 4.22 µM); MIC (S. aureus ATCC 29213; S. aureus ATCC 29213): 4 µg/mL (≈ 8.45 µM); MIC [1, 4]: 4 µg/mL (≈ 8.45 µM); MIC [2]: >64 µg/mL; MIC (S. pneumoniae ATCC 49619; S. pneumoniae ATCC 49619): 2 µg/mL (≈ 4.22 µM)
CCC[C@@H]1C[C@@H](C(=O)N[C@@H]([C@H]2OC(SC)[C@H](O)C(O)C2O)C(C)(C)C(C)N=[N+]=[N-])N(C)C1 (single isomer, unassigned) [FSA-217021b]	–	–	–	–	–	–	–	–	MIC (S. pyogenes ATCC 19615; S. pyogenes ATCC 19615): 0.12 µg/mL (≈ 0.253 µM); MIC (H. influenzae ATCC 49247; H. influenzae ATCC 49247): 32 µg/mL (≈ 67.6 µM); MIC (S. aureus ATCC 29213; S. aureus ATCC 29213): 0.25 µg/mL (≈ 0.528 µM); MIC [1, 4]: 0.25 µg/mL (≈ 0.528 µM); MIC (K. pneumoniae ATCC 10031): >64 µg/mL; MIC [2]: 8 µg/mL (≈ 16.9 µM); MIC (E. coli ATCC 25922): >64 µg/mL; MIC (S. pneumoniae ATCC 49619; S. pneumoniae ATCC 49619): 0.12 µg/mL (≈ 0.253 µM); MIC (E. coli MP-9 ΔTolC): 32 µg/mL (≈ 67.6 µM); MIC (E. faecalis ATCC 29212; E. faecalis ATCC 29212): 64 µg/mL (≈ 135 µM)
CCC[C@@H]1C[C@@H](C(=O)N[C@H]([C@@H]2CCC(O)C2O)[C@H]2OC(SC)[C@H](O)C(O)C2O)N(C)C1 (single isomer, unassigned) [FSA-217039a]	> 64	> 64	> 64	> 64	> 64	–	–	–	MIC (S. pyogenes ATCC 19615; S. pyogenes ATCC 19615): 8 µg/mL (≈ 17.3 µM); MIC (S. aureus ATCC 29213; S. aureus ATCC 29213): >64 µg/mL; MIC [1, 4]: >64 µg/mL; MIC ([2]; Escherichia coli): > 64 µg/mL; MIC (S. pneumoniae ATCC 49619; S. pneumoniae ATCC 49619): 8 µg/mL (≈ 17.3 µM)
CCC[C@@H]1C[C@@H](C(=O)N[C@H]([C@@H]2CCC(O)C2O)[C@H]2OC(SC)[C@H](O)C(O)C2O)N(C)C1 (single isomer, unassigned) [FSA-217039b]	–	–	–	–	–	–	–	–	MIC (S. pyogenes ATCC 19615; S. pyogenes ATCC 19615): 0.5 µg/mL (≈ 1.08 µM); MIC (H. influenzae ATCC 49247; H. influenzae ATCC 49247): >64 µg/mL; MIC (S. aureus ATCC 29213; S. aureus ATCC 29213): 4 µg/mL (≈ 8.65 µM); MIC [1, 4]: 8 µg/mL (≈ 17.3 µM); MIC (K. pneumoniae ATCC 10031): >64 µg/mL; MIC [2]: >64 µg/mL; MIC (E. coli ATCC 25922): >64 µg/mL; MIC (S. pneumoniae ATCC 49619; S. pneumoniae ATCC 49619): 1 µg/mL (≈ 2.16 µM); MIC (E. coli MP-9 ΔTolC): >64 µg/mL; MIC (E. faecalis ATCC 29212; E. faecalis ATCC 29212): >64 µg/mL
CCC[C@@H]1C[C@@H](C(=O)N[C@H](CO)[C@H]2OC(SC)[C@H](O)C(O)C2O)N(C)C1 (some centres unmarked) [FSA-214043, 8-norlincomycin]	–	–	> 64	–	64 (≈ 163 µM)	8 (≈ 20.4 µM)	32 (≈ 81.5 µM)	4 (≈ 10.2 µM)	–
CCC[C@@H]1C[C@@H](C(=O)N[C@H](CNc2ccc(-c3cncnc3)cc2)[C@H]2OC(SC)[C@H](O)C(O)C2O)N(C)C1 (some centres unmarked) [FSA-214080]	–	–	> 64	–	> 64	> 64	> 64	> 64	–
CCC[C@@H]1C[C@@H](C(=O)N[C@H](CNC2CC2)[C@H]2OC(SC)[C@H](O)[C@H](O)C2O)N(C)C1 (some centres unmarked) [FSA-214082b]	–	–	> 64	–	> 64	> 64	> 64	> 64	–
CCC[C@@H]1C[C@@H](C(=O)N[C@H](CNCc2ccc(F)cc2)[C@H]2OC(SC)[C@H](O)C(O)C2O)N(C)C1 (some centres unmarked) [FSA-214084]	–	–	> 64	–	> 64	> 64	> 64	> 64	–
CCC[C@@H]1C[C@@H](C(=O)N[C@H](CNc2ccccc2)[C@H]2OC(SC)[C@H](O)C(O)C2O)N(C)C1 (some centres unmarked) [FSA-214088]	–	–	> 64	–	> 64	> 64	> 64	> 64	–
CCC[C@@H]1C[C@@H](C(=O)N[C@H](CNCC(F)(F)F)[C@H]2OC(SC)[C@H](O)C(O)C2O)N(C)C1 (some centres unmarked) [FSA-214099]	–	–	> 64	–	> 64	32 (≈ 67.6 µM)	64 (≈ 135 µM)	16 (≈ 33.8 µM)	–
CCC[C@@H]1C[C@@H](C(=O)N[C@H](CN(C)c2ccc(-c3cccnc3)cc2)[C@H]2OC(SC)[C@H](O)C(O)C2O)N(C)C1 (some centres unmarked) [FSA-215009]	–	–	> 64	–	> 64	32 (≈ 57.3 µM)	64 (≈ 115 µM)	64 (≈ 115 µM)	–
CCC[C@@H]1C[C@@H](C(=O)N[C@H](Cn2cc(-c3ccnc(N)n3)nn2)[C@H]2OC(SC)[C@H](O)C(O)C2O)N(C)C1 (some centres unmarked) [FSA-215011]	–	–	> 64	–	> 64	> 64	> 64	2 (≈ 3.73 µM)	–
CCC[C@@H]1C[C@@H](C(=O)N[C@H]([C@H](C)NCc2ccc(F)cc2)[C@H]2OC(SC)[C@H](O)C(O)C2O)N(C)C1 (some centres unmarked) [FSA-215025d]	–	> 64	> 64	> 64	> 64	1 (≈ 1.95 µM)	4 (≈ 7.79 µM)	2 (≈ 3.89 µM)	MIC (S. aureus BAA 977 iErmA): 4 µg/mL (≈ 7.79 µM)
CCC[C@@H]1C[C@@H](C(=O)N[C@H]([C@H](C)NC2CC2)[C@H]2OC(SC)[C@H](O)C(O)C2O)N(C)C1 (some centres unmarked) [FSA-215028c]	–	> 64	> 64	> 64	> 64	8 (≈ 18 µM)	64 (≈ 144 µM)	16 (≈ 35.9 µM)	MIC (S. aureus BAA 977 iErmA): 32 µg/mL (≈ 71.8 µM)
CCC[C@@H]1C[C@@H](C(=O)N2CCC[C@@H]2[C@H]2OC(SC)[C@H](O)C(O)C2O)N(C)C1 (some centres unmarked) [FSA-216092]	> 64	> 64	> 64	> 64	> 64	> 64	> 64	> 64	MIC [1, 11]: > 64 µg/mL; MIC ([2]; Escherichia coli): > 64 µg/mL
CCC[C@@H]1C[C@@H](C(=O)N[C@H]([C@H]2C=CCC2)[C@H]2OC(SC)[C@H](O)C(O)C2O)N(C)C1 (some centres unmarked) [FSA-217003]	> 64	> 64	> 64	> 64	64 (≈ 149 µM)	0.5 (≈ 1.17 µM)	1 (≈ 2.33 µM)	0.5 (≈ 1.17 µM)	MIC [1, 11]: 1 µg/mL (≈ 2.33 µM); MIC ([2]; Escherichia coli): > 64 µg/mL
C=CC(C)(C)[C@@H](NC(=O)[C@@H]1C[C@@H](CCC)CN1C)[C@H]1OC(SC)[C@H](O)C(O)C1O (some centres unmarked) [FSA-217009]	64 (≈ 149 µM)	> 64	> 64	> 64	64 (≈ 149 µM)	0.12 (≈ 0.279 µM)	0.25 (≈ 0.581 µM)	0.5 (≈ 1.16 µM)	MIC [1, 11]: 0.25 µg/mL (≈ 0.581 µM); MIC ([2]; Escherichia coli): 32 µg/mL (≈ 74.3 µM)
C#C[C@@H](NC(=O)[C@@H]1C[C@@H](CCC)CN1C)[C@H]1OC(SC)[C@H](O)C(O)C1O (some centres unmarked) [FSA-217031]	> 64	> 64	> 64	> 64	64 (≈ 166 µM)	8 (≈ 20.7 µM)	64 (≈ 166 µM)	4 (≈ 10.3 µM)	MIC [1, 11]: 32 µg/mL (≈ 82.8 µM); MIC ([2]; Escherichia coli): > 64 µg/mL
CCC[C@@H]1C[C@@H](C(=O)N[C@H]([C@@H]2CCCC2N)[C@H]2OC(SC)[C@H](O)C(O)C2O)N(C)C1 (some centres unmarked) [FSA-217045a]	> 64	> 64	> 64	> 64	> 64	> 64	> 64	64 (≈ 144 µM)	MIC [1, 11]: > 64 µg/mL; MIC ([2]; Escherichia coli): > 64 µg/mL
CCC[C@@H]1C[C@@H](C(=O)N[C@H]([C@@H]2CCCC2N)[C@H]2OC(SC)[C@H](O)C(O)C2O)N(C)C1 (some centres unmarked) [FSA-217045b]	–	–	–	–	–	–	–	–	MIC (S. pyogenes ATCC 19615; S. pyogenes ATCC 19615): >64 µg/mL; MIC (H. influenzae ATCC 49247; H. influenzae ATCC 49247): >64 µg/mL; MIC (S. aureus ATCC 29213; S. aureus ATCC 29213): >64 µg/mL; MIC [1, 4]: >64 µg/mL; MIC (K. pneumoniae ATCC 10031): >64 µg/mL; MIC [2]: >64 µg/mL; MIC (E. coli ATCC 25922): >64 µg/mL; MIC (S. pneumoniae ATCC 49619; S. pneumoniae ATCC 49619): 32 µg/mL (≈ 71.8 µM); MIC (E. coli MP-9 ΔTolC): >64 µg/mL; MIC (E. faecalis ATCC 29212; E. faecalis ATCC 29212): >64 µg/mL
CCC[C@@H]1C[C@@H](C(=O)N[C@H](CNC23CC(C2)C3)[C@H]2OC(SC)[C@H](O)C(O)C2O)N(C)C1 (some centres unmarked) [FSA-2140836]	–	–	> 64	–	> 64	> 64	> 64	> 64	–
